Measured values reported in PMC4721142, “Randomized controlled studies on the efficacy of antiarthritic agents in inhibiting cartilage degeneration and pain associated with progression of osteoarthritis in the rat” (Arthritis Research & Therapy, 2016).

Key:
MMT/MCLT rat model of OA = test: MMT/MCLT trial 1 weight bearing (daily morphine 10 mg/kg, tacrolimus 0.3 or 0.6 mg/kg, fluocinolone 5 or 10 μg/kg, clonidine 100 μg/kg, alendronate 10 μg/kg i.p.; curcumin, withaferin 50 mg/kg p.o.); assay type: in vivo
Description: Weight bearing (WB; incapacitance) was measured five times per day, once per week, using a Linton incapacitance meter (Stoelting Co., Wood Dale, IL, USA). Rats were acclimated to the meter before study initiation, and, similarly, immediately before WB, the animals were placed in the meter and allowed to acclimate for 2–5 minutes. Each hind paw was placed on a separate force plate so that the force exerted by each side could be averaged over a 5-second interval, and the mean of three readings was taken for each data point. Right paw force was compared with that on the left side for each group to confirm that animals were displaying incapacitance and/or pain behavior. Differences in force (left minus right) and right paw force as a percentage of the total force exerted by both paws were determined and compared between groups.
Following isoflurane anesthesia, the medial collateral ligament was transected just below its attachment to the meniscus in the right knee. The meniscus was cut at its narrowest point away from the ossicles so as not to damage the tibial surface and to ensure that the anterior and posterior meniscus halves were freely movable. […] In trial 2, drugs were administered IA weekly beginning 1 week following surgery. Three weeks postsurgery, animals were humanely killed and their right knees were collected for histopathology. All studies were conducted in accordance with the International Association for the Study of Pain Guidelines and were approved by the Bolder BioPATH IACUC (Boulder, CO, USA) in compliance with regulations before study initiation (IACUC protocol BBP03-006). Those running the studies were blinded to the treatments. See Additional file 1 for further details.
Isoflurane and the right knee area prepared for surgery. A skin incision was made over the medial aspect of the knee and the medial collateral ligament was exposed by blunt dissection and then transected. The medial meniscus was cut through the full thickness to simulate a complete tear and the skin was then closed with suture.
All pharmaceutical agents were prepared and stored as recommended by the supplier. Daily drug preparations were made fresh from stock solutions. […]
In Trial 2 drugs were […]
administered IA weekly beginning one week following surgery. […]
were delivered by gavage and were prepared in 0.3% Methyl Cellulose.
WB was measured five times a day, once a week, using a Linton incapacitance meter (Stoelting Co.) to assess pain behavior. Rats were acclimated to the incapacitance meter prior to study initiation.
Similarly, immediately prior to WB animals were placed in the incapacitance meter and allowed to acclimate for 2-5 minutes. Each hind paw was placed on a separate force plate so that the force exerted by each side could be averaged over a 5 second interval and the mean of three readings taken for each data point. Right paw force was compared to left for each group to confirm that animals were displaying incapacitance / pain behavior. Difference in force (left minus right) and right paw force as a percentage of the total force exerted by both paws were determined and compared between groups. Three weeks after surgery, animals were humanely euthanized and right knees collected for histopathology evaluation.
Figure 2. MMT/MCLT Trial Timeline […]
MMT/MCLT Dosing (once/day)
The study design and animal usage was approved by Bolder BioPATH’s Institutional Animal Care and Use Committee (IACUC) for compliance with regulations prior to study initiation (IACUC […]
Labs. Animals were identified by a distinct mark at the base of the tail delineating group and animal number. After randomization, all cages were labeled with protocol number, group numbers, and animal numbers with appropriate color-coding (see protocol).

HeLa cells = test: HeLa cell viability (CellTiter-Glo)
How it was run: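 HeLa cells with and without drug were tested for viability by CellTiter-Glo luminescence as a toxicity read-out. In the companion NF-κB reporter assay, cells co-transfected with NF-κB firefly and Renilla luciferase plasmids (8:1) were read by Dual-Glo 5 h later, normalized to viable cells and expressed as fold over unstimulated, untreated cells.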

Row | Structure (SMILES) | Weight bearing, hours with significant effect (MMT/MCLT rat model of OA; day 7, low or only dose) [h] | Weight bearing, hours with significant effect (MMT/MCLT rat model of OA; day 14, low or only dose) | Non-toxic concentrations (HeLa cells) [M] | Weight bearing, hours with significant effect (MMT/MCLT rat model of OA; day 14, tacrolimus 0.6 mg/kg, fluocinolone 0.010 mg/kg) [h] | Weight bearing, hours with significant effect (MMT/MCLT rat model of OA; day 21, low or only dose) [h]
1 | CC1=C(CO)C(=O)O[C@@H]([C@@H](C)[C@H]2CC[C@H]3[C@@H]4C[C@H]5O[C@]56[C@@H](O)C=CC(=O)[C@]6(C)[C@H]4CC[C@]23C)C1 [Withaferin A] | 1 | 3 h | 0 to 17 | – | –
2 | COc1cc(/C=C/C(=O)CC(=O)/C=C/c2ccc(O)c(OC)c2)ccc1O [Curcumin, Diferuloylmethane] | – | – | 0 to 33.75 | – | –
3 | Clc1cccc(Cl)c1N=C1NCCN1 [Clonidine] | 1 | – | – | – | –
4 | C=CC[C@@H]1/C=C(\C)C[C@H](C)C[C@H](OC)[C@H]2O[C@@](O)(C(=O)C(=O)N3CCCC[C@H]3C(=O)O[C@H](/C(C)=C/[C@@H]3CC[C@@H](O)[C@H](OC)C3)[C@H](C)[C@@H](O)CC1=O)[C@H](C)C[C@@H]2OC [Tacrolimus] | 3 | – | 0 to 49.6 | 1 | 3
5 | CC1(C)O[C@@H]2C[C@H]3[C@@H]4C[C@H](F)C5=CC(=O)C=C[C@]5(C)[C@@]4(F)[C@@H](O)C[C@]3(C)[C@]2(C(=O)CO)O1 [Fluocinolone, Fluocinolone Acetonide] | 5 | 1,3 h | – | – | 1
